Results taken from PMC2862277 (The Journal of neuroscience : the official journal of the …, 2010).
Values joined by “and” are separate entries in the source; they are usually repeats but may differ in a detail not shown here. Identical values can stand only once. Like-named read-outs stand apart in the source and are kept apart here.

Columns and labels:
[1] = target: NR1/NR2A (Rattus norvegicus, UniProt P35439+Q00959); assay: Two electrode voltage clamp recording from Xenopus laevis oocytes; assay type: cell-based; conditions: relative to maximal glycine (100 μM), 100 μM glutamate
[2] = target: NR1/NR2B (Rattus norvegicus, UniProt P35439+Q00960); assay: as above; assay type: cell-based; conditions: relative to maximal glycine (100 μM), 100 μM glutamate
[3] = target: T1, NR1/NR2C (Rattus norvegicus, UniProt P35439+Q00961); assay: as above; assay type: cell-based
[4] = target: NR1/NR2D (Rattus norvegicus, UniProt P35439+Q62645); assay: as above; assay type: cell-based; conditions: relative to maximal glycine (100 μM), 100 μM glutamate
[5] = target: NR1(R523A)/NR2B (Rattus norvegicus, UniProt P35439+Q00960, R523A); assay: TEVC recording from Xenopus oocytes, mutant receptor; assay type: cell-based
[6] = target: NR1(R523A)/NR2C (Rattus norvegicus, UniProt P35439+Q00961, R523A); assay: as above; assay type: cell-based
[7] = target: NR1/NR2B(R693A) (Rattus norvegicus, UniProt P35439+Q00960, R693A); assay: as above; assay type: cell-based
[8] = target: NR1/NR2C(R703A) (Rattus norvegicus, UniProt P35439+Q00961, R690A); assay: as above; assay type: cell-based
[9] = target: NR1/NR2A(E798Q) (Rattus norvegicus, UniProt P35439+Q00959, E789Q); assay: as above; assay type: cell-based
[10] = target: NR1/NR2B(E790Q) (Rattus norvegicus, UniProt P35439+Q00960, E790Q); assay: as above; assay type: cell-based
[11] = target: NR1/NR2C(Q800E) (Rattus norvegicus, UniProt P35439+Q00961, Q787E); assay: as above; assay type: cell-based
[12] = target: NR1/NR2D(E791Q) (Rattus norvegicus, UniProt P35439+Q62645, E814Q); assay: as above; assay type: cell-based
[13] = target: NR1/NR2B(E790A) (Rattus norvegicus, UniProt P35439+Q00960, E790A); assay: as above; assay type: cell-based
[14] = target: NR1/NR2C(Q800A) (Rattus norvegicus, UniProt P35439+Q00961, Q787A); assay: as above; assay type: cell-based
[15] = target: NR1(Y692A)/NR2A (Rattus norvegicus, UniProt P35439+Q00959, Y692A); assay: as above; assay type: cell-based
[16] = target: NR1(Y692A)/NR2B (Rattus norvegicus, UniProt P35439+Q00960, Y692A); assay: as above; assay type: cell-based
[17] = target: NR1(Y692A)/NR2C (Rattus norvegicus, UniProt P35439+Q00961, Y692A); assay: as above; assay type: cell-based
[18] = target: NR1(Y692A)/NR2D (Rattus norvegicus, UniProt P35439+Q62645, Y692A); assay: as above; assay type: cell-based
[19] = target: NR1(R755A)/NR2C (Rattus norvegicus, UniProt P35439+Q00961, R755A); assay: as above; assay type: cell-based
[20] = target: NR1/NR2C(S707N,R710P) (Rattus norvegicus, UniProt P35439+Q00961, R697P/S694N); assay: as above; assay type: cell-based
[21] = target: NR1(E781A)/NR2B (Rattus norvegicus, UniProt P35439+Q00960, E781A); assay: as above; assay type: cell-based
[22] = target: NR1(E781A)/NR2C (Rattus norvegicus, UniProt P35439+Q00961, E781A); assay: as above; assay type: cell-based
[23] = target: T1, NR1/NR2C; assay type: cell-based
[24] = target: T1, NR1/NR2C; assay: Single-channel recording from outside-out patches containing one active channel; assay type: cell-based
[25] = target: T1, NR1/NR2C; assay: Maximum interval likelihood fitting of Scheme 1 to single channel data; assay type: cell-based
[26] = target: T1, NR1/NR2C; assay: Least-squares fitting of Scheme 1a to macroscopic currents; assay type: cell-based
[27] = ref McBain et al., 1989; cited from earlier work
[28] = 1 s concentration jump from DCS into glutamate plus DCS
[29] = 1 mM agonist + 1 mM glutamate, 0.5 mM Ca2+
[30] = 1 mM agonist + 1 mM glutamate, 0.5 mM Ca2+, reversal potential assumed 0 mV
[31] = Figure 7B, paired recordings glycine vs DCS
[32] = average of 6 individually fitted patches
[33] = composite open time histogram from 6 patches
[34] = composite shut time histogram from 6 patches
[35] = representative recording from one patch (Figure 8B)
[36] = Table 2, Scheme I (Monte Carlo simulation of gating model)
[37] = this particular patch (Figure 8B), MIL fit Scheme 1

T1 sequence (Q00961 20-1237, other chains not shown): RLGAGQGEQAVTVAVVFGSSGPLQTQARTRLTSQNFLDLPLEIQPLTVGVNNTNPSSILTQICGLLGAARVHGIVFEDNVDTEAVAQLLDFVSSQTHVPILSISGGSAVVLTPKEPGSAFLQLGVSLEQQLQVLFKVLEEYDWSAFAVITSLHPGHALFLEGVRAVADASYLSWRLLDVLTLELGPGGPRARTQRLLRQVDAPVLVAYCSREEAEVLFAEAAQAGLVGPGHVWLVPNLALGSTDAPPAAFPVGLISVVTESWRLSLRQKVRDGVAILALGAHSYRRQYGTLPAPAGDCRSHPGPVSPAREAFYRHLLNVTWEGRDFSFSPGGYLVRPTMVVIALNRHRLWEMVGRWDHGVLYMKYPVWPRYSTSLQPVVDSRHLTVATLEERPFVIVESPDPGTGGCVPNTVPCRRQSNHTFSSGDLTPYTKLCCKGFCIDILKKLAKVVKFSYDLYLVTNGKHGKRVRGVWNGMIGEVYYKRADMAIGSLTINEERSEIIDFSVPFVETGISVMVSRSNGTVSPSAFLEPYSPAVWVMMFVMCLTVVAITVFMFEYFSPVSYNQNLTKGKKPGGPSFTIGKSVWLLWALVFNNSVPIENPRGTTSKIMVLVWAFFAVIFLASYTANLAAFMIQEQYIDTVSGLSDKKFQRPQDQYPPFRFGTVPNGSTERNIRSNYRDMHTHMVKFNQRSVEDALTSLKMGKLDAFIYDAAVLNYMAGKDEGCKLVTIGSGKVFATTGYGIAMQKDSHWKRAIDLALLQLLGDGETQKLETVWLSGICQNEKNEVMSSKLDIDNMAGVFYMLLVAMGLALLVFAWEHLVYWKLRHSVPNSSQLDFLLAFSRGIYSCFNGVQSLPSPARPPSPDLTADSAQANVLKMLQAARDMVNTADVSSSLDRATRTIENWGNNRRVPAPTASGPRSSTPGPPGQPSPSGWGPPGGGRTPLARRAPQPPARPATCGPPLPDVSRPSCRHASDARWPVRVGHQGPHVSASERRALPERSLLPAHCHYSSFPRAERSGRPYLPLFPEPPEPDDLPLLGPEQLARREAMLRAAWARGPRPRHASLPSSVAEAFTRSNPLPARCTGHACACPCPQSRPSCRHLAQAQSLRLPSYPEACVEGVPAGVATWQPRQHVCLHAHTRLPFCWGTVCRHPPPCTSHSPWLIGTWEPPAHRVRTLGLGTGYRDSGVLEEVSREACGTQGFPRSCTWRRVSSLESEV
NR1(R755A)/NR2C, sequence (Q00961 20-1237, other chains not shown): as above
NR1/NR2A, sequence (Q00959 23-1464, other chains not shown): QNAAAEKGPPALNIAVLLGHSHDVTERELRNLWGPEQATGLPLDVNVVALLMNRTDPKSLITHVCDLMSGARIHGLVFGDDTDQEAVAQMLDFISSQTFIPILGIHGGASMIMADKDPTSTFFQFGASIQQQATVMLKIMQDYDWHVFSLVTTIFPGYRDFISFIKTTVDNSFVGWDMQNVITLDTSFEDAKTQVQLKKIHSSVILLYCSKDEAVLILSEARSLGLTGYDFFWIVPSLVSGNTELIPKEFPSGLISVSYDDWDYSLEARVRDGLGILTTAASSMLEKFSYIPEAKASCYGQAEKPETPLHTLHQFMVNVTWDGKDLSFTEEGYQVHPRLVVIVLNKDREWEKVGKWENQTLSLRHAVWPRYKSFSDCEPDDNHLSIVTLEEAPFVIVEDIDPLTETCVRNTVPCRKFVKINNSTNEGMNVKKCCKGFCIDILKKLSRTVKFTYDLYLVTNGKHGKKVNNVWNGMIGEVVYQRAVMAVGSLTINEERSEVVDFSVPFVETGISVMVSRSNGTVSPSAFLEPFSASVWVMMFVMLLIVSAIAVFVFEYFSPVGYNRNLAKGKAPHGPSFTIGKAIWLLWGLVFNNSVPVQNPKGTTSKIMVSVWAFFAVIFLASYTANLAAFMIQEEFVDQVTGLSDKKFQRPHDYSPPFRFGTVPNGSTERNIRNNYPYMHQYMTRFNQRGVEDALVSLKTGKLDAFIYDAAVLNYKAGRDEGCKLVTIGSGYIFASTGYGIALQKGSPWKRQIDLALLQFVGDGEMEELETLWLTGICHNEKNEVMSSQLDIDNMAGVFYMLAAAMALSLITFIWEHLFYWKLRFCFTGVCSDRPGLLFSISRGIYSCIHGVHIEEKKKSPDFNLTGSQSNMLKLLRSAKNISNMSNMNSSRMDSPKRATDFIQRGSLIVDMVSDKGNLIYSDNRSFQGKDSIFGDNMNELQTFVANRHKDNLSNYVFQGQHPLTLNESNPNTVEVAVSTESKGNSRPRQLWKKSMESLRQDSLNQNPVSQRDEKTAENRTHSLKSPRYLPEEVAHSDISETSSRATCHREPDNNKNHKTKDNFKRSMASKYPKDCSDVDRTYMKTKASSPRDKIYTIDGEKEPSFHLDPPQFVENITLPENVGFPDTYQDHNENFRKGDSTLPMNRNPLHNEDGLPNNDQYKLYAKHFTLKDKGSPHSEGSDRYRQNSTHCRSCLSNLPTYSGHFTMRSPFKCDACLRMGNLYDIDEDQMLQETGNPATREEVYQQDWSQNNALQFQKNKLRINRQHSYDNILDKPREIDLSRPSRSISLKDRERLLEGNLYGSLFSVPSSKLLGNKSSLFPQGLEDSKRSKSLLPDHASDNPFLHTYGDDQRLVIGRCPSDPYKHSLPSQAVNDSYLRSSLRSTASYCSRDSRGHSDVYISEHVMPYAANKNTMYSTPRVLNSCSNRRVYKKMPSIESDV
NR1(Y692A)/NR2A, sequence (Q00959 23-1464, other chains not shown): as above
NR1(Y692A)/NR2C, sequence (Q00961 20-1237, other chains not shown): as the sequence (Q00961 20-1237, other chains not shown) above
NR1(R523A)/NR2C, sequence (Q00961 20-1237, other chains not shown): as above
NR1(E781A)/NR2C, sequence (Q00961 20-1237, other chains not shown): as above
NR1/NR2C(Q800E), sequence (Q00961 20-1237 Q787E, other chains not shown): as the sequence (Q00961 20-1237, other chains not shown) above, with Q768E counted along it
NR1/NR2C(Q800A), sequence (Q00961 20-1237 Q787A, other chains not shown): as the sequence (Q00961 20-1237, other chains not shown) above, with Q768A counted along it
NR1/NR2C(S707N,R710P), sequence (Q00961 20-1237 S694N/R697P, other chains not shown): as the sequence (Q00961 20-1237, other chains not shown) above, with S675N, R678P counted along it
NR1/NR2C(R703A), sequence (Q00961 20-1237 R690A, other chains not shown): as the sequence (Q00961 20-1237, other chains not shown) above, with R671A counted along it

Which results are given for N[C@@H]1CON=C1O [DCS, D-cycloserine]?
DCS Efficacy (% glycine) [1]: 90 ± 2 % glycine; DCS Efficacy (% glycine) [2]: 65 ± 2 % glycine; DCS Efficacy (% glycine) ([3]; NR1/NR2C, relative to maximal glycine (100 μM), 100 μM glutamate): 190 ± 6 % glycine and 190 % glycine; DCS Efficacy (% glycine) [4]: 94 ± 2 % glycine; DCS Efficacy (% glycine) [5]: 31±2 % glycine; DCS Efficacy (% glycine) [6]: 254±20 % glycine; DCS Efficacy (% glycine) [7]: 68 ± 3 % glycine; DCS Efficacy (% glycine) [8]: 190 ± 4 % glycine; DCS Efficacy (% glycine) [9]: 90 ± 2 % glycine; DCS Efficacy (% glycine) [10]: 78 ± 1 % glycine; DCS Efficacy (% glycine) [11]: 130 ± 4 % glycine; DCS Efficacy (% glycine) [12]: 110 ± 1 % glycine; DCS Efficacy (% glycine) [13]: 68 ± 3 % glycine; DCS Efficacy (% glycine) [14]: 191 ± 7 % glycine; DCS Efficacy (% glycine) [15]: 77 ± 1 % glycine; DCS Efficacy (% glycine) [16]: 46 ± 1 % glycine; DCS Efficacy (% glycine) [17]: 59 ± 2 % glycine; DCS Efficacy (% glycine) [18]: 75 ± 1 % glycine; DCS Efficacy (% glycine) [19]: 100 % glycine and 100 ± 5 % glycine; DCS Efficacy (% glycine) [20]: 190 ± 7 % glycine; DCS Efficacy (% glycine) [21]: 10 ± 1 % glycine; DCS Efficacy (% glycine) [22]: 150 ± 10 % glycine; Rise time [23, 28]: 3.8 ± 0.7 ms; glutamate deactivation time course [23, 28]: 242 ± 50 ms; Deactivation ([23]; Table 3, Experimental): 130 to 160 ms; Desensitization (τ1) ([23]; Table 3, Experimental): 32 ms; Desensitization (τ2) ([23]; Table 3, Experimental): 540 ms; Rise time ([23]; Table 3, Experimental): 3.1 to 4.9 ms; area of larger conductance level [24, 29]: 72 ± 8%; area of smaller conductance level [24, 29]: 28 ± 5%; conductance level (larger) [24, 30]: 45 ± 5 pS; conductance level (smaller) [24, 30]: 28 ± 3 pS; mean duration of all open periods ([24]; 1 mM agonist + 1 mM glutamate, 6 one-channel patches): 0.61 ± 0.06 ms; open probability (Po) ([24]; 1 mM agonist + 1 mM glutamate, patches with a single active channel): 0.029 ± 0.006; mean open time, % of control (glycine) ([24]; DCS vs glycine, paired patches): 132%; open probability, % of control (glycine) ([24]; DCS vs glycine, paired patches): 163%; mean open time increased by, in the presence of DCS [24, 31]: 131 ± 4%; open probability increased by, in the presence of DCS [24, 31]: 194 ± 33%; MOT (mean open time) ([24]; Table 2, Experimental): 0.57 ms; Steady state Po ([24]; Table 3, Experimental): 0.028; area of shut τ2 [24, 32]: 10%; area of shut τ3 [24, 32]: 30%; area of shut τ4 [24, 32]: 36%; area of shut τ5 [24, 32]: 5%; shut time constant τ1 [24, 32]: 0.04 ± 0.005 ms; shut time constant τ2 [24, 32]: 0.55 ± 0.16 ms; shut time constant τ3 [24, 32]: 8.5 ± 1.2 ms; shut time constant τ4 [24, 32]: 34 ± 4 ms; shut time constant τ5 [24, 32]: 220 ± 79 ms; area of open time τ1 [24, 33]: 49%; area of open time τ2 [24, 33]: 51%; open time constant τ1 [24, 33]: 0.32 ms; open time constant τ2 [24, 33]: 0.76 ms; area of shut τ2 [24, 34]: 10%; area of shut τ3 [24, 34]: 36%; area of shut τ4 [24, 34]: 32%; area of shut τ5 [24, 34]: 3%; shut time constant τ1 [24, 34]: 0.037 ms; shut time constant τ2 [24, 34]: 0.48 ms; shut time constant τ3 [24, 34]: 9.5 ms; shut time constant τ4 [24, 34]: 36 ms; shut time constant τ5 [24, 34]: 248 ms; apparent mean open time [24, 35]: 0.52 ms; open probability [24, 35]: 0.026; d1+ ([25]; MIL fit Scheme 1, six patches): 1.2 ± 0.4 s⁻¹; d1− ([25]; MIL fit Scheme 1, six patches): 4.2 ± 1.0 s⁻¹; d2+ ([25]; MIL fit Scheme 1, six patches): 25 ± 8 s⁻¹; d2− ([25]; MIL fit Scheme 1, six patches): 38 ± 7 s⁻¹; k1+ ([25]; MIL fit Scheme 1, six patches): 420 ± 80 s⁻¹; k1− ([25]; MIL fit Scheme 1, six patches): 1270 ± 340 s⁻¹; k2+ (forward rate of the fast gating step) ([25]; MIL fit Scheme 1, six patches): 1395 ± 215 s^−1 and 1395± 215 ^* s^−1; k2− ([25]; MIL fit Scheme 1, six patches): 17510 ± 2135 s⁻¹; k3+ ([25]; MIL fit Scheme 1, six patches): 4795 ± 815 s⁻¹; k3− (closing rate) ([25]; MIL fit Scheme 1, six patches): 2150 ± 210 s^−1 and 2150 ± 210 ^* s^−1; k4+ ([25]; MIL fit Scheme 1, six patches): 75 ± 35 s⁻¹; k4− ([25]; MIL fit Scheme 1, six patches): 1070 ± 130 s⁻¹; MOT (mean open time) [25, 36]: 0.61 ms; Po [25, 36]: 0.029; LL/event (log likelihood per event) ([25]; goodness of MIL fit of Scheme 1): 4.86 ± 0.05; rate constant k2+ [25, 37]: 2150 s⁻¹; rate constant k3− [25, 37]: 2388 s⁻¹; Deactivation ([26]; Scheme Ia): 245 ms; Desensitization (τ1) ([26]; Scheme Ia): 15 ms; Desensitization (τ2) ([26]; Scheme Ia): 130 ms; Peak Po ([26]; Scheme Ia): 0.042; Rise time ([26]; Scheme Ia): 2.4 ms; Steady state Po ([26]; Scheme Ia): 0.030; Residual (normalized residual sum of squares) ([26]; Scheme Ia macroscopic fit): 2.67 × 10^−3; d1+ ([26]; Scheme Ia macroscopic fit): 1.4 s⁻¹; d1− ([26]; Scheme Ia macroscopic fit): 5.7 s⁻¹; d2+ ([26]; Scheme Ia macroscopic fit): 6.7 s⁻¹; d2− ([26]; Scheme Ia macroscopic fit): 16 s⁻¹; b+ (agonist binding rate) ([26]; glutamate binding step, Scheme Ia, with the labelled NR1 agonist): 560000 M⁻¹ s⁻¹; b− (unbinding rate) ([26]; glutamate unbinding step, Scheme Ia, with the labelled NR1 agonist): 3.4 s⁻¹; pKa for exocyclic amine [27]: 7.5; pKa for the exocyclic oxygen [27]: 4.5

For N[C@@H](CCC(=O)O)C(=O)O [glutamate], which EC50 ([3]; read-out: EC50 for glutamate) is on record?
Its EC50 is 420 ± 40 nM.
